Laboratory results: patent publication US7192924B2, “Corticotropin releasing factor 2 receptor agonists” (priority 2002, dated 2007)
Ends that are not written are not given here. Peptide text beside a SMILES is read from it.

Assays:
CRF2R = biological target: T1, CRF2R (Homo sapiens, UniProt Q13324); assay: CRF2R agonist activity (EC50, Emax), called comparative CRF binding; assay type: cell-based; conditions: read-out: CRF2R EC50
T1 sequence (Q13324 1-411): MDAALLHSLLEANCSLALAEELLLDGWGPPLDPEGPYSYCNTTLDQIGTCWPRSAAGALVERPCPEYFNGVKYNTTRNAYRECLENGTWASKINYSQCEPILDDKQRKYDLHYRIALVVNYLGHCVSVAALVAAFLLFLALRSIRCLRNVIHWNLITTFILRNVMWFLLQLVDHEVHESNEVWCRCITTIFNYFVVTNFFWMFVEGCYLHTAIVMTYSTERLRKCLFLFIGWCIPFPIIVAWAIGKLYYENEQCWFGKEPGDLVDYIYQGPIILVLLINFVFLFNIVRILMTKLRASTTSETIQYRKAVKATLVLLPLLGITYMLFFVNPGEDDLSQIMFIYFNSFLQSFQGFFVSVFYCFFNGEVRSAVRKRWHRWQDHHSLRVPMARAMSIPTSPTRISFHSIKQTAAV
Method in brief: (§1)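 Recombinant CRF1R or CRF2R cells were exposed to peptide. Reporter expression linked to cAMP response element was then quantitated, relative to vehicle control.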

CRF1R = biological target: T2, CRF1R (Homo sapiens, UniProt P34998); assay: CRF1R agonist activity (EC50, Emax), called comparative CRF binding; assay type: cell-based; conditions: read-out: CRF1R EC50
T2 sequence (P34998 24-415): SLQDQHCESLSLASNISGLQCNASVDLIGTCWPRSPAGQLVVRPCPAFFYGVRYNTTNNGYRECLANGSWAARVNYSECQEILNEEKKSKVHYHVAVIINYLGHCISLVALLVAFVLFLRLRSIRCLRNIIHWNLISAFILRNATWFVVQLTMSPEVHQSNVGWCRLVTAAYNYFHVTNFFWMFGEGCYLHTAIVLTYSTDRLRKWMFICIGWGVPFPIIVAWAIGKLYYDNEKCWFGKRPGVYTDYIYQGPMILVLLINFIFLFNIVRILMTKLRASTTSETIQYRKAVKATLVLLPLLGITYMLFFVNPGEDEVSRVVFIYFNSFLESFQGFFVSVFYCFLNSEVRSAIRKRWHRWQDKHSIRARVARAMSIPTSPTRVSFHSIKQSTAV
Method in brief: as §1

Row | Molecule | EC50 (CRF2R) | EC50 (CRF1R)
1 | CC[C@H](C)[C@H](N)C(=O)N[C@H](C(=O)N[C@@H](CC(C)C)C(=O)N[C@@H](CO)C(=O)N[C@@H](CC(C)C)C(=O)N[C@@H](CC(=O)O)C(=O)N[C@H](C(=O)N1CCC[C@H]1C(=O)N[C@H](C(=O)NCC(=O)N[C@@H](CC(C)C)C(=O)N[C@@H](CC(C)C)C(=O)N[C@@H](CCC(N)=O)C(=O)N[C@H](C(=O)N[C@@H](CC(C)C)C(=O)N[C@@H](CC(C)C)C(=O)N[C@@H](CCC(=O)O)C(=O)N[C@@H](CCSC)C(=O)N[C@H](C(=O)N[C@@H](CCCCN)C(=O)N[C@@H](C)C(=O)N[C@@H](CC(=O)O)C(=O)N[C@@H](CCC(N)=O)C(=O)N[C@@H](CC(C)C)C(=O)N[C@@H](C)C(=O)N[C@@H](CCC(N)=O)C(=O)N[C@@H](CCC(N)=O)C(=O)N[C@@H](C)C(=O)N[C@@H](Cc1c[nH]cn1)C(=O)N[C@@H](CO)C(=O)N[C@@H](CC(N)=O)C(=O)N[C@@H](CCCNC(=N)N)C(=O)N[C@@H](CCCCN)C(=O)N[C@@H](CC(C)C)C(=O)N[C@@H](CC(C)C)C(=O)N[C@@H](CC(=O)O)C(=O)N[C@H](C(=O)N[C@@H](C)C(N)=O)[C@@H](C)CC)[C@@H](C)O)[C@@H](C)CC)[C@@H](C)CC)C(C)C)C(C)C [compound 155] (H-IVLSLDVPIGLLQILLEMTKADQLAQQAHSNRKLLDIA-NH2; N-terminus assumed) | 20.6 nM | 40.6 nM
2 | CC[C@H](C)[C@H](NC(=O)[C@H](C)NC(=O)[C@H](CC(N)=O)NC(=O)[C@H](CCC(N)=O)NC(=O)[C@H](CCC(=O)O)NC(=O)[C@H](C)NC(=O)[C@H](CCCNC(=N)N)NC(=O)[C@H](CCC(=O)O)NC(=O)[C@H](CCCNC(=N)N)NC(=O)[C@H](CCC(N)=O)NC(=O)[C@H](CO)NC(=O)[C@H](CCC(N)=O)NC(=O)[C@@H](NC(=O)[C@H](CCCCN)NC(=O)[C@H](CCC(=O)O)NC(=O)[C@H](CC(C)C)NC(=O)[C@H](CCC(=O)O)NC(=O)[C@H](CC(C)C)NC(=O)[C@H](CC(C)C)NC(=O)[C@@H](NC(=O)[C@H](CCCNC(=N)N)NC(=O)[C@H](CC(C)C)NC(=O)[C@H](CC(C)C)NC(=O)[C@H](Cc1ccccc1)NC(=O)[C@H](CC(C)C)NC(=O)[C@@H]1CCCN1C(=O)[C@H](CC(C)C)NC(=O)[C@H](CC(=O)O)NC(=O)[C@@H](NC(=O)[C@H](CO)NC(=O)[C@H](CC(C)C)NC(=O)[C@H](CO)NC(=O)[C@@H]1CCCN1C(=O)[C@H](CC(N)=O)NC(=O)[C@@H](N)CC(=O)O)[C@@H](C)CC)[C@@H](C)O)[C@@H](C)O)C(=O)N[C@H](C(=O)N[C@@H](Cc1ccccc1)C(=O)N[C@@H](C)C(=O)N[C@@H](CO)C(=O)N[C@H](C(N)=O)C(C)C)[C@@H](C)CC [compound 343] (H-DNPSLSIDLPLFLLRTLLELEKTQSQRERAEQNAIIFASV-NH2; N-terminus assumed) | 13.6 nM | 783 nM
3 | CC[C@H](C)[C@H](N)C(=O)N[C@H](C(=O)N[C@@H](CC(C)C)C(=O)N[C@@H](CO)C(=O)N[C@@H](CC(C)C)C(=O)N[C@@H](CC(=O)O)C(=O)N[C@H](C(=O)N1CCC[C@H]1C(=O)N[C@H](C(=O)NCC(=O)N[C@@H](CC(C)C)C(=O)N[C@@H](CC(C)C)C(=O)N[C@@H](CCC(N)=O)C(=O)N[C@@H](CCCCN)C(=O)N[C@H](C(=O)N[C@H](C(=O)N[C@@H](CCC(=O)O)C(=O)N[C@H](C(=O)N[C@@H](CCC(=O)O)C(=O)N[C@@H](CCCCN)C(=O)N[C@@H](CCC(N)=O)C(=O)N[C@@H](CCC(=O)O)C(=O)N[C@@H](CCCCN)C(=O)N[C@@H](CCC(=O)O)C(=O)N[C@@H](CCCCN)C(=O)N[C@@H](CCC(N)=O)C(=O)N[C@@H](CCC(N)=O)C(=O)N[C@@H](C)C(=O)N[C@H](C(=O)N[C@H](C(=O)N[C@@H](CC(N)=O)C(=O)N[C@@H](C)C(=O)N[C@@H](CCCNC(=N)N)C(=O)N[C@H](C(=O)N[C@@H](CC(C)C)C(=O)N[C@@H](C)C(=O)N[C@@H](CCCNC(=N)N)C(=O)N[C@H](C(N)=O)C(C)C)[C@@H](C)CC)[C@@H](C)O)[C@@H](C)O)[C@@H](C)CC)[C@@H](C)CC)C(C)C)[C@@H](C)CC)C(C)C)C(C)C [compound 300] (H-IVLSLDVPIGLLQKVIEIEKQEKEKQQATTNARILARV-NH2; N-terminus assumed) | 17.1 nM | ≥ 1000 nM
4 | NDDPPISIDLPFYLLRNMIEMARIENEREQAGLNAKYLAEV-NH2 [compound 261] | ≥ 100 nM | 274 nM
5 | CC[C@H](C)[C@H](NC(=O)[C@H](CCCNC(=N)N)NC(=O)[C@H](C)NC(=O)[C@H](CC(N)=O)NC(=O)[C@H](CCC(N)=O)NC(=O)[C@H](CCC(=O)O)NC(=O)[C@H](C)NC(=O)[C@H](CCCNC(=N)N)NC(=O)[C@H](CCC(=O)O)NC(=O)[C@H](CCCNC(=N)N)NC(=O)[C@H](CCC(N)=O)NC(=O)[C@H](CO)NC(=O)[C@H](CCC(N)=O)NC(=O)[C@@H](NC(=O)[C@H](CCCCN)NC(=O)[C@H](CCC(=O)O)NC(=O)[C@H](CC(C)C)NC(=O)[C@H](CCC(=O)O)NC(=O)[C@H](CC(C)C)NC(=O)[C@H](CC(C)C)NC(=O)[C@@H](NC(=O)[C@H](CCCNC(=N)N)NC(=O)[C@H](CC(C)C)NC(=O)[C@H](CC(C)C)NC(=O)[C@H](Cc1ccccc1)NC(=O)[C@H](CC(C)C)NC(=O)[C@@H]1CCCN1C(=O)[C@H](CC(C)C)NC(=O)[C@H](CC(=O)O)NC(=O)[C@@H](NC(=O)[C@H](CO)NC(=O)[C@H](CC(C)C)NC(=O)[C@H](CO)NC(=O)[C@@H]1CCCN1C(=O)[C@H](CC(N)=O)NC(=O)[C@@H](N)CC(=O)O)[C@@H](C)CC)[C@@H](C)O)[C@@H](C)O)C(=O)N[C@@H](Cc1ccccc1)C(=O)N[C@@H](CC(=O)O)C(=O)N[C@@H](CCCNC(=N)N)C(=O)N[C@H](C(N)=O)C(C)C [compound 336] (H-DNPSLSIDLPLFLLRTLLELEKTQSQRERAEQNARIFDRV-NH2; N-terminus assumed) | 17.8 nM | ≥ 1000 nM
6 | CC[C@H](C)[C@H](NC(=O)[C@H](C)NC(=O)[C@H](CC(N)=O)NC(=O)[C@H](CCC(N)=O)NC(=O)[C@H](CCC(=O)O)NC(=O)[C@H](C)NC(=O)[C@H](CCCNC(=N)N)NC(=O)[C@H](CCC(=O)O)NC(=O)[C@H](CCCNC(=N)N)NC(=O)[C@H](CCC(N)=O)NC(=O)[C@H](CO)NC(=O)[C@H](CCC(N)=O)NC(=O)[C@@H](NC(=O)[C@H](CCCCN)NC(=O)[C@H](CCC(=O)O)NC(=O)[C@H](CC(C)C)NC(=O)[C@H](CCC(=O)O)NC(=O)[C@H](CC(C)C)NC(=O)[C@H](CC(C)C)NC(=O)[C@@H](NC(=O)[C@H](CCCNC(=N)N)NC(=O)[C@H](CC(C)C)NC(=O)[C@H](CC(C)C)NC(=O)[C@H](CC(C)C)NC(=O)[C@H](CC(C)C)NC(=O)[C@@H]1CCCN1C(=O)[C@H](CC(C)C)NC(=O)[C@H](CC(=O)O)NC(=O)[C@@H](NC(=O)[C@H](CO)NC(=O)[C@H](CC(C)C)NC(=O)[C@H](CO)NC(=O)[C@@H]1CCCN1C(=O)[C@H](CC(N)=O)NC(=O)[C@@H](N)CC(=O)O)[C@@H](C)CC)[C@@H](C)O)[C@@H](C)O)C(=O)N[C@H](C(=O)N[C@@H](Cc1ccccc1)C(=O)N[C@@H](C)C(=O)N[C@@H](CO)C(=O)N[C@H](C(N)=O)C(C)C)[C@@H](C)CC [compound 347] (H-DNPSLSIDLPLLLLRTLLELEKTQSQRERAEQNAIIFASV-NH2) | 22.4 nM | ≥ 1000 nM
7 | CC[C@H](C)[C@H](NC(=O)[C@H](CCC(=O)O)NC(=O)[C@H](C)NC(=O)[C@H](CC(N)=O)NC(=O)[C@H](CCC(N)=O)NC(=O)[C@H](CCC(=O)O)NC(=O)[C@H](C)NC(=O)[C@H](CCCNC(=N)N)NC(=O)[C@H](CCC(=O)O)NC(=O)[C@H](CCCNC(=N)N)NC(=O)[C@H](CCC(N)=O)NC(=O)[C@H](CO)NC(=O)[C@H](CCC(N)=O)NC(=O)[C@@H](NC(=O)[C@H](CCCCN)NC(=O)[C@H](CCC(=O)O)NC(=O)[C@H](CC(C)C)NC(=O)[C@H](CCC(=O)O)NC(=O)[C@H](CC(C)C)NC(=O)[C@H](CC(C)C)NC(=O)[C@@H](NC(=O)[C@H](CCCNC(=N)N)NC(=O)[C@H](CC(C)C)NC(=O)[C@H](CC(C)C)NC(=O)[C@H](CC(C)C)NC(=O)[C@H](CC(C)C)NC(=O)[C@@H]1CCCN1C(=O)[C@H](CC(C)C)NC(=O)[C@H](CC(=O)O)NC(=O)[C@@H](NC(=O)[C@H](CO)NC(=O)[C@H](CC(C)C)NC(=O)[C@H](CO)NC(=O)[C@@H]1CCCN1C(=O)[C@H](CC(N)=O)NC(=O)[C@@H](N)CC(=O)O)[C@@H](C)CC)[C@@H](C)O)[C@@H](C)O)C(=O)N[C@@H](Cc1ccccc1)C(=O)N[C@@H](C)C(=O)N[C@@H](CCC(=O)O)C(=O)N[C@H](C(N)=O)C(C)C [compound 323] (H-DNPSLSIDLPLLLLRTLLELEKTQSQRERAEQNAEIFAEV-NH2; N-terminus assumed) | 19.6 nM | ≥ 1000 nM
8 | HHHHHHIVLSLDVPIGLLQILLEQARARAAREQATTNARILARN-NH2 [compound 296] | 6.66 nM | ≥ 100 nM
